Measured values as given in PMC8760490, “Discovery of novel furanylbenzamide inhibitors that target oncogenic tyrosine phosphatase SHP2 in leukemia cells” (The Journal of Biological Chemistry, 2021).

Biological target: T1, SHP2cat (Homo sapiens, UniProt Q06124)
T1 construct: the SHP2 catalytic domain (SHP2cat; residues 248–527); made in house
T1 sequence (Q06124 248-527): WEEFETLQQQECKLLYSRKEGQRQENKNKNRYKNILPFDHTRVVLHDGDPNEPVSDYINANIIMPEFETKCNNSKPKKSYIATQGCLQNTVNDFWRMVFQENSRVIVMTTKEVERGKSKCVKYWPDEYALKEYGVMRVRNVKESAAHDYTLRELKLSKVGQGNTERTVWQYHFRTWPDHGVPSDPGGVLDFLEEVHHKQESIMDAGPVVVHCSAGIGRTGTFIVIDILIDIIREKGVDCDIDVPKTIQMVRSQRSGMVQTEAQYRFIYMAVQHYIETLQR
Assay: OMFP fluorescence phosphatase inhibition assay, SHP2cat
Type: biochemical
Conditions: substrate OMFP at Km (50 μM); read-out: IC50 against SHP2cat with OMFP
Excerpt: We confirmed specific and dose-dependent binding of inhibitors to SHP2 by PTS, which monitors the thermal stability of a target protein in vitro ([40]). […] In addition, we confirmed the inhibitory activity of several furanylbenzamide inhibitors, including the top two compounds SBI-2130 and SBI-4668, in SHP2cat inhibition assays using the alternative substrate 3-O-methylfluorescein phosphate (OMFP), which features a peak fluorescence emission that is red-shifted by ∼75 nm compared with DiFMUP. The Km value of OMFP for SHP2cat was determined to be 50 μM. An OMFP fluorescence intensity–based assay was used to perform inhibitor dose–response experiments and determine IC50 values.
SHP2 inhibitors were tested at RT in a 384-well plate format standard phosphatase fluorescence intensity assay using DiFMUP (Invitrogen/Thermo Fisher Scientific) as a substrate and a total reaction volume of 25 μl. […] Fluorescence intensity was measured in kinetic mode (every minute for 7 or 10 min) using a Tecan Spark Multimode Microplate Reader (Tecan) with an excitation wavelength of 360 nm and an emission wavelength of 460 nm. The initial rates were determined from the linear progression curves of the PTP reaction. […] IC50 values were calculated from the corrected initial rates by nonlinear regression using the program GraphPad Prism, version 8 (GraphPad Software, Inc) software. […]

| Compound | IC50 [µM] |
| --- | --- |
| Nc1ccc(NC(=O)c2cc(-c3ccc(/C=C4\Sc5ccccc5C4=O)o3)ccc2O)cc1 [SBI-2130, (Z)-N-(4-Aminophenyl)-2-hydroxy-5-(5-((3-oxobenzo[b]thiophen-2(3H)-ylidene)methyl)furan-2-yl)benzamide] | 0.44 |
| O=C(Nc1ccccc1)c1cc(-c2ccc(/C=C3\Sc4ccccc4C3=O)o2)ccc1O [SBI-4668, (Z)-2-Hydroxy-5-(5-((3-oxobenzo[b]thiophen-2(3H)-ylidene)methyl)furan-2-yl)-N-phenylbenzamide] | 1.2 |
